# Test results: patent US20090098050A1, “CALCIUM BINDING PEPTIDES” (THE REGENTS OF THE UNVERSITY OF CALIFORNIA, priority 2005, published 2009)
# Read-outs that look alike come from different tables or passages of the source. No end group written: not given here.
# What was measured:
# [1] = tested on: Streptococcus mutans strain UA159; format: cell-based
# Description: In order to determine the suitability of DSS peptides to serve as targeting moieties to deliver therapeutic compounds to mineralized surfaces, peptides were synthesized containing an N-terminal (DSS)4, (DSS)5, or (DSS)6 peptide, a triglycine (GGG) linker, and a 2c-4 antimicrobial peptide (SEQ ID NO:26) (J. He, unpublished). The sequences of these fusion proteins are set forth in SEQ ID NOs:27-29, respectively. The antimicrobial activity of these peptides against anaerobic planktonic bacteria was determined by a modification of a previously described assay (Qi 2005). Briefly, Streptococcus mutans strain UA159 cells were diluted to ˜1×10^5 cfu/mL in Todd-Hewitt (TH) broth medium and mixed with either suspended hydroxyapatite nanocrystals (Berkeley Advanced Biomaterials, Inc., 0.03% w/v) or, for control samples, an equivalent volume of deionized water. Aliquots were transferred into 96-well plates (Fisher). Serial dilutions of the peptides were then made and added to the bacteria. […] Nonetheless, some antimicrobial activity is retained by this peptide.
# [2] = Binding of labeled 6DSS to sagitally sectioned human teeth (CLSM)
# Protocol: FIG. 1: Binding affinities of DSS and DSS variant peptides for hydroxyapatite and tooth surfaces. A-C. Fluorescein-labeled peptides at concentrations ranging from 0-100 μM were incubated with 0.3 mg of hydroxyapatite nanocrystals (specific surface area=100 m^2/g) for ten minutes, followed by removal of the hydroxyapatite by centrifugation. The amount of peptide in the mixture before and after hydroxyapatite removal was determined by Abs480. Isotherms were plotted and fit to the Langmuir equation to extract values for KA, a constant reflecting the affinity of the peptide for the hydroxyapatite surface. D. Sagitally sectioned human teeth were incubated with 12.5 μM 5(6) carboxyfluorescein-labeled 6DSS peptide for ten minutes, followed by rinsing. Peptide binding to tooth surfaces was visualized by Confocal Laser Scanning Microscopy (CLSM) using blue laser illumination (λA=488 nm) and a FITC emission filter. Left side, light colored region: dentin. Right side, dark colored region: enamel.
# Control samples were prepared without peptide. Samples were rinsed after treatment and imaged by confocal laser scanning microscopy (CLSM) using blue laser illumination (excitation wavelength (λ)=488 nm) and a FITC emission filter.
# [3] = tested on: mineralized mouse bone marrow nodules; test: Binding to mineralized mouse bone marrow nodules (fluorescence microscopy); format: cell-based; conditions: 2.5 μM 5(6)-carboxyfluorescein-labeled peptide, three weeks
# Protocol: FIG. 2: Binding of 6DSS peptide to mineralized mouse bone marrow nodules (MBMNs). Mouse bone marrow cultures were grown to confluence, then treated for three weeks with 2.5 μM scrambled control peptide or 2.5 μM 6DSS. Cultures were imaged by fluorescence microscopy using a FITC filter set. A. Brightfield image of mineralized MBMNs from a culture treated with 6DSS. B. Fluorescence image of the field shown in (A). […] C. Brightfield image of mineralized MBMNs from a culture treated with scrambled control peptide. D. Fluorescence image of the field shown in (C), illustrating both the lack of binding of the control peptide to the MBMN's and the lack of autofluorescence within the sample. Mouse bone marrow cultures were grown to confluence in DMEM+10% FBS, then treated continuously for three weeks with either 2.5 μM 5(6)-carboxyfluorescein-labeled 6DSS or 2.5 μM 5(6)-carboxyfluorescein-labeled peptide #3-1 (scrambled control peptide, SEQ. ID NO. 24) in aMEM+10% FBS with 50 μg/mL ascorbic acid 4 mM β-glycerophosphate. Cultures were imaged by fluorescence microscopy using a FITC excitation/emission filter set, and both brightfield and fluorescence images were obtained.
# [4] = Tissue specific binding of DSS peptides and variants in human teeth (CLSM); conditions: 12.5 μM labeled peptide
# Protocol: FIG. 8: Fluorescence micrographs showing tissue specificity in the binding of DSS peptides and variants. Adult human teeth were exposed to 12.5 μM 5(6)-carboxyfluorescein-labeled peptide without demineralization, washed extensively, and imaged by CLSM. For each section, multiple scans were collected and assembled in an automated mode to generate panels of images representing an area of 13×13 mm, sufficient in most cases to encompass the whole section. The peptides used for each section are labeled beneath each panel, and within each panel the tooth is oriented with the root toward the top of the image and the crown toward the bottom. Tissue layers are labeled as follows: RTD=Root Tip Dentin; CPD=Circumpulpal Dentin; MD=Mantle Dentin; P=Pulp Cavity Wall; DEJ=Dentin-Enamel Junction; E=Enamel; BE=Basal Enamel; CE=Cortical Enamel; CL=Carious Lesion; PB=Periodontal Bone.
# In order to investigate the tissue specificity of DSS peptide binding to tooth tissue, sections of human teeth were exposed to DSS peptides and variants, then imaged by CLSM as described in Example 2. The peptides utilized for these experiments were 8DSS, 8ASS, 8DAA, 8NAA, 4DSS, 4ESS, 4NSS, 4DTT, 4ETT, 4NTT, and 6DSS. Sagittal sections of human teeth extracted during normal clinical practice were polished and then incubated for ten minutes in a solution of the appropriate 5(6) carboxyfluorescein-labeled peptide (12.5 μM) containing 10 mM NaCl and 50 mM HEPES, pH 7.0. Control samples were prepared without peptide. Samples were washed extensively after treatment and imaged by CLSM using blue laser illumination (λ=488 nm) and a FITC emission filter, with identical camera and microscope settings for each sample. For each section, multiple scans were collected and assembled in an automated mode to generate panels of images representing an area of 13×13 mm, sufficient in most cases to encompass the whole section. […] Significant binding was also seen to the edges of the pulp cavity.
# [5] = Preferential binding to carious lesions in teeth (CLSM); set-up: species or system human; conditions: labeled peptide, settings optimized per sample
# Protocol: FIG. 9: Fluorescence micrographs showing specific binding of DSS peptides and variants to carious lesions in teeth. Adult human teeth were exposed to 12.5 uM 5(6)-carboxyfluorescein-labeled peptide without demineralization, washed extensively, and imaged by CLSM. Microscope and camera settings were optimized separately for each sample. […] White traces on the right side of each panel identify the position of the tooth surface, while arrows indicate the position of the stained lesion.
# Sections of human teeth containing obvious carious lesions, which consist of demineralized enamel, were polished and exposed to 5(6)-carboxyfluorescein-labeled DSS peptides and variants using the protocol described in Example 2. The sections were washed extensively and imaged by CLSM using blue laser illumination (λ=488 nm) and a FITC emission filter, with microscope and camera settings adjusted for each sample to optimize the signal detected from each peptide. The images were examined to identify the relative levels of peptide binding in healthy versus carious tissue. […] Given their ability to remineralize at sites of enamel degradation (Example 6), they can also be used to initiate remineralization at sites of enamel degradation such as caries or injury sites without causing inappropriate nucleation on healthy tissue surfaces.
substance,measurement,setting,value
"FHFHLHF [PL-135, reference compound]",MIC,"[1]; strain UA159, 24 h",21 µM
"RWRWRWF [2c-4, reference compound]",MIC,"[1]; strain UA159, 24 h",2 µM
"6DSS: peptide containing six Asp-Ser-Ser (DSS) repeats, SEQ ID NO:14 (DSSDSSDSSDSSDSSDSS; calcium binding peptide containing six DSS repeats, 6DSS, (DSS)-6)",Fluorescent staining of tooth surface,"[2]; 12.5 μM 5(6) carboxyfluorescein-labeled peptide, ten minutes",Intense fluorescent staining
same,Location of peptide binding in tooth section,"[2]; 12.5 μM labeled peptide, dentin versus enamel",limited to the dentin
same,Staining of mineralizing nodules,[3],Strong staining
same,Tissue binding pattern in healthy tooth section,[4]; nondemineralized teeth,bound primarily to the mantle dentin
same,Level of binding (staining) to tooth surfaces,"[4]; ten minutes, identical settings",greatest levels of staining
same,Specificity of binding to carious lesions versus surrounding healthy enamel,[5],highly specific binding to carious lesions
same,Strength of staining of carious lesions,[5],exceptionally strong staining of carious lesions
"LKRFLKWFKRF [b-34, reference compound]",MIC,"[1]; strain UA159, 24 h",5.6 µM
"peptide #3-1: scrambled control peptide, SEQ. ID NO. 24 (LIKHILHRL; scrambled control peptide #3-1) [reference compound]",Staining of mineralizing nodules,[3],No staining
DSSDSSDSSDSSGGGRWRWRWF [4DSS-2c4],MIC,"[1]; planktonic S. mutans, with 0.03% (w/v) hydroxyapatite, approximately 24 hours",unaffected
same,MIC,"[1]; strain UA159, 24 h",52.5 µM
